Experimental data published in patent publication US20040038199A1, “Phenotyping assay and reagents therefor” (priority 2000, published 2004).
Like-named read-outs stand apart in the source and are kept apart here.

Key:
Assay type in all cases: cell-based, HIV-1
[1] = test system: Virus 2 (recombinant generated from plasma of Subject 2 by RVA); assay: MTT-reduction cell viability drug susceptibility assay, recombinant Virus 2 (RVA); conditions: for EC50 / fold resistance: Table 3A, Virus 2, method RVA; for fold resistance: relative to WT (HXB2)
Procedure: (§1) As previously discussed, recombinant virus produced by the method of the present invention may be used in drug sensitivity assays. A suitable drug sensitivity assay is described in Pauwels et al. (1988) and is an MTT-reduction colorimetric cell viability assay. Cells infected with the virus are plated into the wells of tissue culture plates and incubated with the anti-viral drug to be tested. After incubation, MTT (3-(4,5-dimethylthiazol-2-yl)-2,5diphenyltetrazolium bromide) is added to the cell culture. Only live cells produce the blue formazan product after incubation with MTT. This product is detectable by reading the optical absorbance at 540-590 nm, so the absorbance reading gives a measure of the cells which have been protected from the virus by the anti-viral drug. Viral drug resistance results in a decrease in surviving cells and a decrease in absorbance at 540-590 nm.
(§2) In this experiment, plasma from three HIV-1 infected subjects experiencing virological failure on PI-containing therapy regimens was used as the basis for the FPH to generate recombinant virus. […] Virus from Subject 2 had L10I, M46I, I50V and a Lp1′F mutation at the p1/p6 protease cleavage site, all of which are mutations typical of high level APV resistance.
(§3) The LTR was added to the nested products by PMR prior to transfection. The PMR reactions successfully added the LTR sequences to the nested products (FIG. 9). The first round RT-PCR reactions were also used as templates to generate products for RVA by cotransfection with pHXBΔCSPRTC. Triplicate PCR products were cotransfected into MT4 cells with the linearised plasmid pHXBTOPO1, in the case of the PMR products, and with linearised pHXBΔCSPRTC in for the RVA products. Viral cytopathic effect was observed and titratable virus was harvested in the supernatants. No virus was isolated from virus 2 using FPH and only one of the triplicate cultures from virus 3 yielded infectious virus. All of the RVA cultures produced virus.
(§4) In order to determine whether the extra sequences in the FPH recombinants contain determinants of susceptibility, the recombinant viruses were tested against several drugs. Drug susceptibility was determined by the 3-(4,5dimethylthiazol-2-yl)-2,5-diphenyltetrazolium bromide (MTT)-reduction calorimetric cell viability assay described previously (Pauwels et al. 1988; Robinson et al., 2000). Changes in susceptibility were defined as fold increase in IC50 relative to WT (HXB2). Nucleotide sequences were determined using ABI 3700 capillary sequencers and Big Dye terminators. […] Virus 1 also gave a 2.2-fold (Table 3A) or 4-fold (Table 3B) higher susceptibility to IDV and 2.9-fold (Table 3A) or 3.2-fold higher susceptibility to APV when generated by RVA.

HXB2 = assay: MTT-reduction cell viability drug susceptibility assay, wild type HXB2 (Table 3A); conditions: for EC50: HXB2 wild type; for fold resistance: HXB2 wild type (reference)
Procedure: as §1, §4

[2] = test system: Virus 3 (recombinant generated from plasma of Subject 3 by FPH or RVA); assay: MTT-reduction cell viability drug susceptibility assay, recombinant Virus 3 (FPH or RVA); conditions: for EC50 / fold resistance: Table 3A; for fold resistance: relative to WT (HXB2)
Procedure: as §1, §2, §3, §4

[3] = test system: Virus 1 (recombinant generated from plasma of Subject 1 by FPH or RVA); assay: MTT-reduction cell viability drug susceptibility assay, recombinant Virus 1 (FPH or RVA); conditions: for EC50 / fold resistance: Table 3A; for EC50: read-out: Drug EC50; for fold resistance: relative to WT (HXB2)
Procedure: as §1, §2, §3, §4

[4] = test system: recombinant viruses generated by FPH or RVA; assay: Comparison of drug susceptibility of FPH generated and RVA generated viruses; conditions: two separate experiments (tables 3A and B)
Procedure: as §1
In order to determine whether the extra sequences in the FPH recombinants contain determinants of susceptibility, the recombinant viruses were tested against several drugs. Drug susceptibility was determined by the 3-(4,5dimethylthiazol-2-yl)-2,5-diphenyltetrazolium bromide (MTT)-reduction calorimetric cell viability assay described previously (Pauwels et al. 1988; Robinson et al., 2000). […] Nucleotide sequences were determined using ABI 3700 capillary sequencers and Big Dye terminators. […]

[5] = test system: Virus 4.1, 4.2, 4.3 (recombinants by RVA); assay: MTT-reduction cell viability drug susceptibility assay, viruses 4.1-4.3 (Table 3B); conditions: for EC50: Human immunodeficiency virus 1, Table 3B; for fold resistance: Table 3B, relative to WT
Procedure: as §1, §3, §4

[6] = test system: WT (HXB2) generated by FPH or RVA; assay: MTT-reduction cell viability drug susceptibility assay, WT (Table 3B); conditions: for EC50: Human immunodeficiency virus 1, HXB2, Table 3B; for fold resistance: Table 3B
Procedure: as §1, §4

[7] = test system: Virus 5.1 (FPH), 5.2 (RVA); assay: MTT-reduction cell viability drug susceptibility assay, viruses 5.1 and 5.2 (Table 3B); conditions: for EC50: Human immunodeficiency virus 1, Table 3B; for fold resistance: Table 3B, relative to WT
Procedure: as §1, §3, §4

[8] = test system: Virus 3.1, 3.2, 3.3 (recombinants by FPH or RVA); assay: MTT-reduction cell viability drug susceptibility assay, viruses 3.1-3.3 (Table 3B); conditions: for fold resistance: Table 3B, relative to WT
Procedure: as §1, §3, §4

For `CC(C)c1nc(CN(C)C(=O)N[C@H](C(=O)N[C@@H](Cc2ccccc2)C[C@H](O)[C@H](Cc2ccccc2)NC(=O)OCc2cncs2)C(C)C)cs1` [RTV], the EC50 [1] was 454 nM, the fold resistance [1] was “(7.0) fold” and the EC50 (HXB2) was 65.1 nM. For the same compound, the fold resistance (HXB2) was “(1.0) fold”, the EC50 ([2]; Virus 3, method FPH) was 1790 nM and the fold resistance ([2]; Virus 3, method FPH) was “(27) fold”. The EC50 ([2]; Virus 3, method RVA) was 1400 nM, the fold resistance ([2]; Virus 3, method RVA) was “(22) fold” and the EC50 ([3]; Virus 1, method FPH) was 205 nM. The fold resistance ([3]; Virus 1, method FPH) was “(3.1) fold”, the EC50 ([3]; Virus 1, method RVA) was 90.4 nM and the fold resistance ([3]; Virus 1, method RVA) was “(1.4) fold”.

With `CC(C)(C)NC(=O)[C@@H]1C[C@@H]2CCCC[C@@H]2CN1C[C@@H](O)[C@H](Cc1ccccc1)NC(=O)[C@H](CC(N)=O)NC(=O)c1ccc2ccccc2n1` [SQV] the EC50 [1] was 9.06 nM, the fold resistance [1] was “(0.69) fold” and the EC50 (HXB2) was 13.1 nM. For the same compound, the fold resistance (HXB2) was “(1.0) fold”, the EC50 ([2]; Virus 3, method FPH) was 16.4 nM and the fold resistance ([2]; Virus 3, method FPH) was “(1.3) fold”. For the same compound, the EC50 ([2]; Virus 3, method RVA) was 13.7 nM, the fold resistance ([2]; Virus 3, method RVA) was “(1.0) fold” and the EC50 ([3]; Virus 1, method FPH) was 13.1 nM. For the same compound, the fold resistance ([3]; Virus 1, method FPH) was “(1.0) fold”, the EC50 ([3]; Virus 1, method RVA) was 6.56 nM and the fold resistance ([3]; Virus 1, method RVA) was “(0.5) fold”.

For `Cc1cn([C@H]2C[C@H](N=[N+]=[N-])[C@@H](CO)O2)c(=O)[nH]c1=O` [ZDV, zidovudine], the “resistance, fold higher than wild-type” value ([1]; Virus 2 obtained via the RVA, Table 3B experiment) was greater than 84 fold, the “Susceptibility in FPH generated versus RVA generated viruses” value [4] was “lower in the FPH generated than the RVA generated viruses” and the EC50 ([5]; Virus 4.1, method RVA) was greater than 5000 nM. For the same compound, the EC50 ([5]; Virus 4.2, method RVA) was greater than 5000 nM, the EC50 ([5]; Virus 4.3, method RVA) was greater than 5000 nM and the fold resistance ([5]; Virus 4.1, method RVA) was “(>163) fold”. For the same compound, the fold resistance ([5]; Virus 4.2, method RVA) was “(>163) fold”, the fold resistance ([5]; Virus 4.3, method RVA) was “(>163) fold” and the EC50 ([6]; method FPH) was 28.3 nM. For the same compound, the EC50 ([6]; method RVA) was 30.7 nM, the fold resistance ([6]; method FPH (reference)) was “(1.0) fold” and the fold resistance ([6]; method RVA (reference)) was “(1.0) fold”. For the same compound, the EC50 ([7]; Virus 5.1, method FPH) was 48.2 nM, the EC50 ([7]; Virus 5.2, method RVA) was 16.5 nM and the fold resistance ([7]; Virus 5.1, method FPH) was “(1.7) fold”. For the same compound, the fold resistance ([7]; Virus 5.2, method RVA) was “(−1.9) fold”, the “difference in susceptibility between the two techniques (RVA vs FPH)” value ([2]; virus 3, Table 3B experiment) was 2.9 fold and the “fold higher susceptibility when generated by RVA than when generated by FPH” value ([3]; virus 1, Table 3B experiment) was 4.8 fold. For the same compound, the EC50 ([8]; Human immunodeficiency virus 1, Table 3B, Virus 3.1, method FPH, read-out: Drug EC50) was 76.1 nM, the EC50 ([8]; Human immunodeficiency virus 1, Table 3B, Virus 3.2, method FPH, read-out: Drug EC50) was 65.3 nM and the EC50 ([8]; Human immunodeficiency virus 1, Table 3B, Virus 3.3, method FPH, read-out: Drug EC50) was 35.1 nM. The EC50 ([8]; Human immunodeficiency virus 1, read-out: Drug EC50, Table 3B, Virus 3.1, method RVA) was 12.3 nM, the fold resistance ([8]; Virus 3.1, method FPH) was “(2.7) fold” and the fold resistance ([8]; Virus 3.1, method RVA) was “(−2.5) fold”. For the same compound, the fold resistance ([8]; Virus 3.2, method FPH) was “(2.3) fold” and the fold resistance ([8]; Virus 3.3, method FPH) was “(1.2) fold”.
